Results reported in patent US6858638B2, “Substituted indazoles, compositions containing them, method of production and use” (Aventis Pharma S.A., priority 2002, dated 2005).

Experiments:
Type in all cases: biochemical
[1] = target: T1, human KDR enzyme (Homo sapiens, UniProt P35968); experiment: KDR substrate (PLCγ) phosphorylation, scintillation assay; details: 10 μM; read-out: KDR % inhib at 10 μM
T1 construct: The cytoplasmic domain of the human KDR enzyme; GST; made in house; host or cells: SF21 insect cells (baculovirus)
T1 sequence (P35968 786-1356 limits assumed): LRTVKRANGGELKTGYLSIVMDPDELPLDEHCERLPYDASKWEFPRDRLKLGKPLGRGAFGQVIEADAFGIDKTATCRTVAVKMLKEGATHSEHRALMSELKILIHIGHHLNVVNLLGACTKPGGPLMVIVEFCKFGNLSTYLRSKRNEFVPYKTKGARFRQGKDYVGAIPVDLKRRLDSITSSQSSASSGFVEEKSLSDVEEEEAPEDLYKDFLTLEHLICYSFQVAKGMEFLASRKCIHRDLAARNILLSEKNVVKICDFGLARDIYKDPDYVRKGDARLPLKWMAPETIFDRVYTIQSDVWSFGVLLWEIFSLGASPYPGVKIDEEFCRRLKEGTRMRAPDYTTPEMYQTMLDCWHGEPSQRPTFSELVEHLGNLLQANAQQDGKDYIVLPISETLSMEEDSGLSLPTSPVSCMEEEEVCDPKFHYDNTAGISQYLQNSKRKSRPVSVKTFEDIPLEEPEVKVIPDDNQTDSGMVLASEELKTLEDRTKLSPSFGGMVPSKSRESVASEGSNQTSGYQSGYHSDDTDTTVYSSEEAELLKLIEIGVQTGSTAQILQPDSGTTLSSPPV
Outline: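 Values are percent inhibition relative to the compound-free control, read by scintillation counting of 33P incorporation after EDTA stop. Baculovirus/SF21-expressed GST-KDR cytoplasmic domain (100 ng) acted for 1 h at 37 °C in pH 7.2 MOPS kinase buffer. The substrate was GST-PLCγ SH2-SH3 (2 μg), added with γ33P-ATP and 2 μM unlabeled ATP.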

[2] = target: T2, human IGF1R cytoplasmic domain (Homo sapiens, UniProt P08069); experiment: IGF1R autophosphorylation inhibition, time resolved fluorescence (HTRF) assay; details: 10 μM; read-out: IGF1R % inhib at 10 μM
T2 construct: The human IGF1R cytoplasmic domain was cloned; made in house; host or cells: SF21 insect cells (baculovirus)
T2 sequence (P08069 960-1367 limits assumed): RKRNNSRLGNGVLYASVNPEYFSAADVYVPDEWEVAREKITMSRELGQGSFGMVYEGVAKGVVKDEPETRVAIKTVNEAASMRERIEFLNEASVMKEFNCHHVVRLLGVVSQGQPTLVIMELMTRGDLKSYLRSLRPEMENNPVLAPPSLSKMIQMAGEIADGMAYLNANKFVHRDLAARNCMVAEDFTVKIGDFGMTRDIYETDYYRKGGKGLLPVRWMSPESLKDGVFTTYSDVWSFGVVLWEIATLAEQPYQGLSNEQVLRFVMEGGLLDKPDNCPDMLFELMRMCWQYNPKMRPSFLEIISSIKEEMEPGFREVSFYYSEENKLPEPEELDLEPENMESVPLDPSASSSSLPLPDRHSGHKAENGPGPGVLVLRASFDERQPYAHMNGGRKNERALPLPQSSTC
Outline: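 GST-tagged human IGF1R cytoplasmic domain from SF21 cells incubated with compound in 50 mM Hepes pH 7.5, 5 mM MnCl2, 50 mM NaCl, […] ATP. Autophosphorylation detected by HTRF (Eu-K anti-phosphotyrosine, XL665 anti-GST) after EDTA/KF stop; percentage inhibition versus no-compound control.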

[3] = target: T3, human FAK (Homo sapiens, UniProt Q05397); experiment: FAK autophosphorylation inhibition, time resolved fluorescence (HTRF) assay; details: 10 μM (values without asterisk); read-out: FAK % inhib at 10 μM
T3 construct: The complete cDNA of human FAK; made in house; host or cells: baculovirus expression system (vector pFastBac HTc)
T3 sequence (Q05397 whole entry): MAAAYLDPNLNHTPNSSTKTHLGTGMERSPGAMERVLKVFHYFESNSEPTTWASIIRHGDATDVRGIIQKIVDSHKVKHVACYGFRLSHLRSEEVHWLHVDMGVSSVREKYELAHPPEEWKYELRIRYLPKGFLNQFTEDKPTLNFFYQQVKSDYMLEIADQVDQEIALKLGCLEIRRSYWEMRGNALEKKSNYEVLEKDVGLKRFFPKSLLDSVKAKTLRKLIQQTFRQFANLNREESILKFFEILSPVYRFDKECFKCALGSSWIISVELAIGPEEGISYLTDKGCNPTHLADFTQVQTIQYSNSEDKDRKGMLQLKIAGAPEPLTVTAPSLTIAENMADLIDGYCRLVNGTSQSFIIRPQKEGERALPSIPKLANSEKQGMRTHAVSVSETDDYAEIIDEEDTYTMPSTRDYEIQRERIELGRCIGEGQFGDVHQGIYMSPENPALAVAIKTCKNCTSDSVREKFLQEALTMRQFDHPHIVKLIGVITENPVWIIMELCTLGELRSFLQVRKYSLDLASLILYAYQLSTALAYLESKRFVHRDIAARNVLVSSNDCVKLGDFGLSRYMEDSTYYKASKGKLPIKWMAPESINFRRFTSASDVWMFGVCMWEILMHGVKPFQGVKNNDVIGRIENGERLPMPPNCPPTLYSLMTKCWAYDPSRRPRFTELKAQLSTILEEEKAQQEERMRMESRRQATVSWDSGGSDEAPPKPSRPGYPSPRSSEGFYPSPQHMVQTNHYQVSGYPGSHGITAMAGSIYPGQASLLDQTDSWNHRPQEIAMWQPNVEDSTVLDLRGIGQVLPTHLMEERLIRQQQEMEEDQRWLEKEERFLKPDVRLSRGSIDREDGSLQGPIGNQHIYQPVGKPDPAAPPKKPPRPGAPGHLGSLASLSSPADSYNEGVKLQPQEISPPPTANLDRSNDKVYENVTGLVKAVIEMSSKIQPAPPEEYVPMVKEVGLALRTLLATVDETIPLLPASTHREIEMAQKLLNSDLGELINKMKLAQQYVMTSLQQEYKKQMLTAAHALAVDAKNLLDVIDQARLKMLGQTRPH
Outline: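 Autophosphorylation was detected by europium-cryptate anti-pTyr and XL665 anti-His energy transfer, percent inhibition from the 665/620 ratio relative to no-compound wells. Enzyme: His-FAK full length, 6.6 µg/ml, incubated 1 h at 37 °C, pH 7.2, 15 µM ATP.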

Row | SMILES | inhibition at 10 µM [1] [%] | inhibition at 10 µM [2] [%] | inhibition at 10 µM [3] [%]
1 | CN(C)c1ccc(-c2n[nH]c3ccc(NS(=O)(=O)c4ccccc4S(C)(=O)=O)cc23)cc1 [Example 63, N-[3-(4-Dimethylaminophenyl)-1H-indazol-5-yl]-2-methylsulfonylbenzenesulfonamide] | 0 | 81 | 94
2 | CNc1n[nH]c2ccc(NS(=O)(=O)c3ccccc3S(C)(=O)=O)cc12 [Example 37, N-(3-Methylamino-1H-indazol-5-yl)-2-methylsulfonylbenzenesulfonamide] | 8 | 51 | 67
3 | COc1ccc(-c2n[nH]c3ccc(NS(=O)(=O)c4ccccc4S(C)(=O)=O)cc23)cc1 [Example 32, N-[3-(4-Methoxyphenyl)-1H-indazol-5-yl]-2-methylsulfonylbenzenesulfonamide] | 87 | 93 | 97
4 | CS(=O)(=O)c1ccccc1S(=O)(=O)Nc1ccc2[nH]nc(/C=C/c3ccc(F)cc3)c2c1 [Example 74, N-{3-[(E)-2-(4-Fluorophenyl)vinyl]-1H-indazol-5-yl}-2-methylsulfonylbenzenesulfonamide] | 95 | 95 | 99
5 | CS(=O)(=O)c1ccccc1S(=O)(=O)Nc1ccc2[nH]nc(/C=C/c3ccc(Cl)cc3)c2c1 [Example 76, N-{3-[(E)-2-(4-Chlorophenyl)vinyl]-1H-indazol-5-yl}-2-methylsulfonylbenzenesulfonamide] | 92 | 96 | 96

Continued, values first:

Row | inhibition at 10 µM [1] [%] | inhibition at 10 µM [2] [%] | inhibition at 10 µM [3] [%] | SMILES
6 | 23 | 92 | 92 | CS(=O)(=O)c1ccccc1S(=O)(=O)Nc1ccc2[nH]nc(NCc3ccccc3)c2c1 [Example 36, N-(3-Benzylamino-1H-indazol-5-yl)-2-methylsulfonylbenzenesulfonamide]
7 | 92 | 72 | 47 | Cc1cccc(S(=O)(=O)Nc2ccc3[nH]nc(-c4ccccc4)c3c2)c1 [Example 138, 3-Methyl-N-(3-phenyl-1H-indazol-5-yl)-benzenesulfonamide]
8 | 25 | 82 | 21 | CS(=O)(=O)c1ccccc1S(=O)(=O)Nc1ccc2[nH]nc(Sc3ccccc3)c2c1 [Example 88, 2-Methylsulfonyl-N-(3-phenylsulfanyl-1H-indazol-5-yl)-benzenesulfonamide]
9 | 91 | 81 | 61 | O=S(=O)(Nc1ccc2[nH]nc(-c3ccccc3)c2c1)c1ccccc1C(F)(F)F [Example 109, N-(3-Phenyl-1H-indazol-5-yl)-2-trifluoromethylbenzene-sulfonamide]
10 | 96 | 75 | 54 | N#Cc1cccc(S(=O)(=O)Nc2ccc3[nH]nc(-c4ccccc4)c3c2)c1 [Example 154, 3-Cyano-N-(3-phenyl-1H-indazol-5-yl)-benzenesulfonamide]
11 | 96 | 68 | 95 | O=S(=O)(Nc1ccc2[nH]nc(-c3ccccc3)c2c1)c1cc(F)cc(F)c1 [Example 158, 3,5-Difluoro-N-(3-phenyl-1H-indazol-5-yl)-benzenesulfonamide]
